Measured values taken from PubChem BioAssay (NCI).
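These data come from cells grown in 96-well plates and exposed to compound for 48 hours at five concentrations. At the GI50, growth is halved. TGI is the concentration that stops growth completely.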

Legend:
Experiment in all cases: growth of human tumour cells (NCI), 48 h
CAKI-1 renal = tested on: CAKI-1 renal
MOLT-4 leukemia = tested on: MOLT-4 leukemia
EKVX NSCLC = tested on: EKVX NSCLC
OVCAR-5 ovarian = tested on: OVCAR-5 ovarian
SW-620 colon = tested on: SW-620 colon
HS 578T breast = tested on: HS 578T breast
U251 CNS = tested on: U251 CNS
OVCAR-4 ovarian = tested on: OVCAR-4 ovarian
UO-31 renal = tested on: UO-31 renal
HT29 colon = tested on: HT29 colon
HOP-92 NSCLC = tested on: HOP-92 NSCLC
A549 NSCLC = tested on: A549 NSCLC
NCI-H226 lung = tested on: NCI-H226 lung
HCC-2998 colon = tested on: HCC-2998 colon
SK-MEL-28 melanoma = tested on: SK-MEL-28 melanoma
HOP-62 NSCLC = tested on: HOP-62 NSCLC
UACC-257 melanoma = tested on: UACC-257 melanoma
RXF 393 renal = tested on: RXF 393 renal
A498 renal = tested on: A498 renal
SF-268 CNS = tested on: SF-268 CNS
SK-OV-3 ovarian = tested on: SK-OV-3 ovarian
SR leukemia = tested on: SR leukemia
786-0 renal = tested on: 786-0 renal
RPMI-8226 leukemia = tested on: RPMI-8226 leukemia
NCI/ADR-RES ovarian = tested on: NCI/ADR-RES ovarian
SK-MEL-2 melanoma = tested on: SK-MEL-2 melanoma
HCT-15 colon = tested on: HCT-15 colon
HL-60(TB) leukemia = tested on: HL-60(TB) leukemia
IGROV1 ovarian = tested on: IGROV1 ovarian
SF-295 CNS = tested on: SF-295 CNS
KM12 colon = tested on: KM12 colon
K-562 leukemia = tested on: K-562 leukemia
UACC-62 melanoma = tested on: UACC-62 melanoma
NCI-H522 lung = tested on: NCI-H522 lung
T-47D breast = tested on: T-47D breast
ACHN renal = tested on: ACHN renal
SN12C renal = tested on: SN12C renal
MCF7 breast = tested on: MCF7 breast
HCT-116 colon = tested on: HCT-116 colon
MDA-MB-435 = tested on: MDA-MB-435
DU-145 prostate = tested on: DU-145 prostate
NCI-H460 lung = tested on: NCI-H460 lung
SK-MEL-5 melanoma = tested on: SK-MEL-5 melanoma
CCRF-CEM leukemia = tested on: CCRF-CEM leukemia
COLO 205 colon = tested on: COLO 205 colon
MDA-MB-231 breast = tested on: MDA-MB-231 breast
PC-3 prostate = tested on: PC-3 prostate
SNB-75 CNS = tested on: SNB-75 CNS
LOX IMVI melanoma = tested on: LOX IMVI melanoma
M14 melanoma = tested on: M14 melanoma
TK-10 renal = tested on: TK-10 renal
BT-549 breast = tested on: BT-549 breast
OVCAR-8 ovarian = tested on: OVCAR-8 ovarian
SF-539 CNS = tested on: SF-539 CNS
SNB-19 CNS = tested on: SNB-19 CNS
OVCAR-3 ovarian = tested on: OVCAR-3 ovarian

Cc1nc2ccccn2c1NC(=O)NNC(=S)Nc1ccc(Cl)cc1
GI50 (CAKI-1 renal): > 100 µM
TGI (CAKI-1 renal): > 100 µM
GI50 (MOLT-4 leukemia): > 100 µM
TGI (MOLT-4 leukemia): > 100 µM
GI50 (EKVX NSCLC): > 100 µM
TGI (EKVX NSCLC): > 100 µM
GI50 (OVCAR-5 ovarian): > 100 µM
TGI (OVCAR-5 ovarian): > 100 µM
GI50 (SW-620 colon): > 100 µM
TGI (SW-620 colon): > 100 µM
GI50 (HS 578T breast): > 100 µM
TGI (HS 578T breast): > 100 µM
GI50 (U251 CNS): > 100 µM
TGI (U251 CNS): > 100 µM
GI50 (OVCAR-4 ovarian): > 100 µM
TGI (OVCAR-4 ovarian): > 100 µM
GI50 (UO-31 renal): > 100 µM
TGI (UO-31 renal): > 100 µM
GI50 (HT29 colon): > 100 µM
TGI (HT29 colon): > 100 µM
GI50 (HOP-92 NSCLC): > 100 µM
TGI (HOP-92 NSCLC): > 100 µM
GI50 (A549 NSCLC): > 100 µM
TGI (A549 NSCLC): > 100 µM
GI50 (NCI-H226 lung): > 100 µM
TGI (NCI-H226 lung): > 100 µM
GI50 (HCC-2998 colon): > 100 µM
TGI (HCC-2998 colon): > 100 µM
GI50 (SK-MEL-28 melanoma): > 100 µM
TGI (SK-MEL-28 melanoma): > 100 µM
GI50 (HOP-62 NSCLC): > 100 µM
TGI (HOP-62 NSCLC): > 100 µM
GI50 (UACC-257 melanoma): > 100 µM
TGI (UACC-257 melanoma): > 100 µM
GI50 (RXF 393 renal): > 100 µM
TGI (RXF 393 renal): > 100 µM
GI50 (A498 renal): > 100 µM
TGI (A498 renal): > 100 µM
GI50 (SF-268 CNS): > 100 µM
TGI (SF-268 CNS): > 100 µM
GI50 (SK-OV-3 ovarian): > 100 µM
TGI (SK-OV-3 ovarian): > 100 µM
GI50 (SR leukemia): 95.7 µM
TGI (SR leukemia): > 100 µM
GI50 (786-0 renal): > 100 µM
TGI (786-0 renal): > 100 µM
GI50 (RPMI-8226 leukemia): > 100 µM
TGI (RPMI-8226 leukemia): > 100 µM
GI50 (NCI/ADR-RES ovarian): > 100 µM
TGI (NCI/ADR-RES ovarian): > 100 µM
GI50 (SK-MEL-2 melanoma): > 100 µM
TGI (SK-MEL-2 melanoma): > 100 µM
GI50 (HCT-15 colon): > 100 µM
TGI (HCT-15 colon): > 100 µM
GI50 (HL-60(TB) leukemia): > 100 µM
TGI (HL-60(TB) leukemia): > 100 µM
GI50 (IGROV1 ovarian): > 100 µM
TGI (IGROV1 ovarian): > 100 µM
GI50 (SF-295 CNS): > 100 µM
TGI (SF-295 CNS): > 100 µM
GI50 (KM12 colon): > 100 µM
TGI (KM12 colon): > 100 µM
GI50 (K-562 leukemia): > 100 µM
TGI (K-562 leukemia): > 100 µM
GI50 (UACC-62 melanoma): > 100 µM
TGI (UACC-62 melanoma): > 100 µM
GI50 (NCI-H522 lung): > 100 µM
TGI (NCI-H522 lung): > 100 µM
GI50 (T-47D breast): > 100 µM
TGI (T-47D breast): > 100 µM
GI50 (ACHN renal): > 100 µM
TGI (ACHN renal): > 100 µM
GI50 (SN12C renal): > 100 µM
TGI (SN12C renal): > 100 µM
GI50 (MCF7 breast): > 100 µM
TGI (MCF7 breast): > 100 µM
GI50 (HCT-116 colon): > 100 µM
TGI (HCT-116 colon): > 100 µM
GI50 (MDA-MB-435): > 100 µM
TGI (MDA-MB-435): > 100 µM
GI50 (DU-145 prostate): > 100 µM
TGI (DU-145 prostate): > 100 µM
GI50 (NCI-H460 lung): > 100 µM
TGI (NCI-H460 lung): > 100 µM
GI50 (SK-MEL-5 melanoma): > 100 µM
TGI (SK-MEL-5 melanoma): > 100 µM
GI50 (CCRF-CEM leukemia): > 100 µM
TGI (CCRF-CEM leukemia): > 100 µM
GI50 (COLO 205 colon): > 100 µM
TGI (COLO 205 colon): > 100 µM
GI50 (MDA-MB-231 breast): 67.8 µM
TGI (MDA-MB-231 breast): > 100 µM
GI50 (PC-3 prostate): > 100 µM
TGI (PC-3 prostate): > 100 µM
GI50 (SNB-75 CNS): > 100 µM
TGI (SNB-75 CNS): > 100 µM
GI50 (LOX IMVI melanoma): > 100 µM
TGI (LOX IMVI melanoma): > 100 µM
GI50 (M14 melanoma): > 100 µM
TGI (M14 melanoma): > 100 µM
GI50 (TK-10 renal): > 100 µM
TGI (TK-10 renal): > 100 µM
GI50 (BT-549 breast): > 100 µM
TGI (BT-549 breast): > 100 µM
GI50 (OVCAR-8 ovarian): > 100 µM
TGI (OVCAR-8 ovarian): > 100 µM
GI50 (SF-539 CNS): > 100 µM
TGI (SF-539 CNS): > 100 µM
GI50 (SNB-19 CNS): > 100 µM
TGI (SNB-19 CNS): > 100 µM
GI50 (OVCAR-3 ovarian): > 100 µM
TGI (OVCAR-3 ovarian): > 100 µM
